Reference: publication PMC10858940, “Repositioning baloxavir marboxil as VISTA agonist that ameliorates experimental asthma” (Cell Biology and Toxicology, 2024)
Like-named read-outs stand apart in the source and are kept apart here.

Experiments:
[1] = target: T1, VISTA (V-type immunoglobulin domain–containing suppressor of T-cell activation) (Homo sapiens, UniProt Q9H7M9); assay: SPR (Biacore T200, human VISTA immobilized on CM5 chip); type: binding
T1 construct: gene VSIR; human VISTA protein
T1 sequence (Q9H7M9 33-194 limits assumed): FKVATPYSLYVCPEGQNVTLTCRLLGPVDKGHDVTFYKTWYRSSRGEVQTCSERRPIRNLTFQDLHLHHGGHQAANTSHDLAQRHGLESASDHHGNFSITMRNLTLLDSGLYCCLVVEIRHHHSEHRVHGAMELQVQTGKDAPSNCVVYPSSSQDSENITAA

[2] = target: T2, VISTA (V-type immunoglobulin domain–containing suppressor of T-cell activation) (Homo sapiens, UniProt Q9H7M9); assay: as above; type: binding
T2 construct: gene VSIR; human VISTA-ECD protein
T2 sequence (Q9H7M9 33-194): T1 sequence (Q9H7M9 33-194 limits assumed)

Row | Kd [1] | Kd [2] | Structure (SMILES)
1 | 1070 nM | – | COC(=O)OCOc1c2n(ccc1=O)N([C@@H]1c3ccccc3SCc3c1ccc(F)c3F)[C@@H]1COCCN1C2=O [BXM, baloxavir marboxil]
2 | – | 210 nM | O=C1c2c(O)c(=O)ccn2N([C@@H]2c3ccccc3SCc3c2ccc(F)c3F)[C@@H]2COCCN12 [BXA, baloxavir acid]
